By IC50 is commonly meant the point on the concentration scale where inhibition reaches its midpoint.

The text below walks through data of ChEMBL document CHEMBL4842390, “Amino-Heterocycle Tetrahydroisoquinoline CXCR4 Antagonists with Improved ADME Profiles via Late-Stage Buchwald Couplings” (ACS Med Chem Lett, 2021).

Data set [1] has as its target Cytochrome P450 3A4 (Homo sapiens, UniProt P08684). Kind of data set: Inhibition of CYP3A4 (unknown origin). The class given is ADME.
The target of data set [2] is C-X-C chemokine receptor type 4 (Homo sapiens, UniProt P61073). Kind of data set: Antagonist activity at CXCR4 receptor in human CCRF-CEM cells assessed as inhibition of SDF-1alpha-induced calcium release preincubated for 25 mins followed by SDF-1alpha addition and monitered for 90 sec. The data set is classed as functional, cell-based.
C-X-C chemokine receptor type 4, sequence (P61073 whole entry): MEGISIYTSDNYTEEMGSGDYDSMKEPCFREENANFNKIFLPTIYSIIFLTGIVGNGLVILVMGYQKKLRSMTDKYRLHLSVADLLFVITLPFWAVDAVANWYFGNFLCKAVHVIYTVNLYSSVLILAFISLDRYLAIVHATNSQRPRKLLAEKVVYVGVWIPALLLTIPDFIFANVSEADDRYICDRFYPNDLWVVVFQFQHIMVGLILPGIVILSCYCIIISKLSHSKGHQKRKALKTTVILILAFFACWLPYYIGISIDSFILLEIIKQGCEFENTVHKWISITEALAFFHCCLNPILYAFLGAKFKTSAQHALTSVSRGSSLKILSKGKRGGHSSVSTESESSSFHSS
The nature of data set [3]: Metabolic stability in human liver microsomes assessed as parent compound remaining incubated for 10 mins in presence of NADPH. The class given is ADME, Microsome. The note with it: read-out: Stabilty. Background: Liver microsomes are vesicles of endoplasmic reticulum, rich in cytochrome P450 enzymes.
Data set [4] is described as follows: cells. The note with it: Homo sapiens, CCRF-CEM.
Description: Antagonist activity at muscarinic acetylcholine receptor in human CCRF-CEM cells assessed as inhibition of acetylcholine-induced calcium release preincubated for 25 mins followed by acetylcholine addition and monitered for 90 sec
The target in data set [5] is Cytochrome P450 2D6 (Homo sapiens, UniProt P10635). Kind of data set: Inhibition of human recombinant CYP2D6 expressed in insect cells using AMMC as substrate preincubated for 30 mins followed by NADPH regenerating system addition and measured after 45 mins by fluorescence based assay. The data set is classed as ADME.
Cytochrome P450 2D6, sequence (P10635 whole entry): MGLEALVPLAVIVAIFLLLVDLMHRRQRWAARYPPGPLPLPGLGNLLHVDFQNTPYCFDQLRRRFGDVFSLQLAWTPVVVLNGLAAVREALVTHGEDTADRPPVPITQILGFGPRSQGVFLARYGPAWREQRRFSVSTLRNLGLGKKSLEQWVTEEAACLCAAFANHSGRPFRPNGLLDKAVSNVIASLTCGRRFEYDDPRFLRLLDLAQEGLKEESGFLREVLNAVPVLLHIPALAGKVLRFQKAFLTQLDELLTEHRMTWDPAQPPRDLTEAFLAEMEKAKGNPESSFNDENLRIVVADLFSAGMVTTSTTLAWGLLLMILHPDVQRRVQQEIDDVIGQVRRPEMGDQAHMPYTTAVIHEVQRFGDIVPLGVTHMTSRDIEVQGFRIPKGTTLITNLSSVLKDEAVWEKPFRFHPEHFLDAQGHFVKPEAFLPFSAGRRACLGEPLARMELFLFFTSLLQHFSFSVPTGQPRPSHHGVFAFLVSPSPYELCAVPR
Data set [6] can be described thus: Metabolic stability in mouse liver microsomes assessed as parent compound remaining incubated for 10 mins in presence of NADPH. The note with it: read-out: Stabilty. The class given is ADME, Microsome.
Data set [7] is described as follows: Metabolic stability in rat liver microsomes assessed as parent compound remaining incubated for 10 mins in presence of NADPH. The class given is ADME, Microsome. The settings on record: read-out: Stabilty.
A short description of data set [8]: Permeability of the compound at pH 7.4 incubated for 4 hrs by PAMPA. The data set is classed as ADME. The note with it: read-out: permeability. Background: PAMPA measures passive passage across an artificial lipid membrane.

Bounds are passed on as bounds.

Cytochrome P450 3A4, sequence (P08684 whole entry): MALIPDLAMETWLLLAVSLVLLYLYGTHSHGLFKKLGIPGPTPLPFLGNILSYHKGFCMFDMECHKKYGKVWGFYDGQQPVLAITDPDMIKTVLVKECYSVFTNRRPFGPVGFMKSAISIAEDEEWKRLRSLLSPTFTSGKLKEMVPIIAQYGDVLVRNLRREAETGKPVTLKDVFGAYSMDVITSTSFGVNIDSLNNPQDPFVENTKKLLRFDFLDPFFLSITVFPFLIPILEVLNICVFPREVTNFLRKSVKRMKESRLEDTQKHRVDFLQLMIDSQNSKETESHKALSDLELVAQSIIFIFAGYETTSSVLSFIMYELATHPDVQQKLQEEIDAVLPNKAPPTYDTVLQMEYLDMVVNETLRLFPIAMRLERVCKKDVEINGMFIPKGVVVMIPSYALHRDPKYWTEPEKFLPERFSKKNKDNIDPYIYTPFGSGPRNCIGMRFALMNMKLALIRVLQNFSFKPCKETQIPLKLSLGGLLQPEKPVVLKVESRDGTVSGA

For `CN(C[C@@H]1Cc2c(cccc2NC2CCNCC2)CN1)[C@H]1CCCc2cccnc21`, the IC50 in data set [1] is above 20 µM; in data set [2] it was 1.67 µM; in data set [4], above 16.7 µM; in data set [5], above 20 µM. The values for the remaining at 10 min in data set [3], in data set [6] and in data set [7] were 79.9%, 12.4% and 26.2%, respectively.

Regarding `CN(C[C@H]1Cc2c(cccc2N[C@H]2CC[C@H](N)CC2)CN1)[C@H]1CCCc2cccnc21`, the IC50 is above 20 µM in data set [1], 0.826 µM in data set [4] and above 20 µM in data set [5]. Moreover, the remaining at 10 min turned out to be 100% in data set [3], 100% in data set [6] and 75% in data set [7].

In the case of `CN(C[C@H]1Cc2c(cccc2N2C[C@H]3CNC[C@H]3C2)CN1)[C@H]1CCCc2cccnc21`, the IC50 in data set [1] was above 20 µM; in data set [2] it was 0.0103 µM; in data set [4], 6.39 µM; in data set [5] it was 7.81 µM. In addition, the remaining at 10 min in data set [3] came out at 86.7%; in data set [6], 54.7%; in data set [7] it was 38.1%.

Turning to `CN(C[C@H]1Cc2c(cccc2N2C[C@H]3CCN(C)[C@H]3C2)CN1)[C@H]1CCCc2cccnc21`, the IC50 was above 20 µM in data set [1], 0.0187 µM in data set [2], 2.9 µM in data set [4] and 17.3 µM in data set [5]. Also, the remaining at 10 min in data set [3] is 97.6%; in data set [7] it was 11.2%. Besides, the Papp at 4 h in data set [8] is 1.9 ×10⁻⁶ cm/s.

In the case of `CN1CC[C@H]2CN(c3cccc4c3C[C@H](CN(C)[C@H]3CCCc5cccnc53)NC4)C[C@H]21`, the IC50 in data set [1] is above 20 µM; in data set [2] it was 0.0114 µM; in data set [4], 11.9 µM; in data set [5] it was 18.6 µM. Besides, the remaining at 10 min in data set [3] was 87.3%; in data set [6], 24%; in data set [7] it was 1.78%. Moreover, the Papp at 4 h in data set [8] was 0.9 ×10⁻⁶ cm/s.

Regarding `CN(C)C1CCN(c2cccc3c2C[C@H](CN(C)[C@H]2CCCc4cccnc42)NC3)C1` (single isomer, unassigned; 36), the IC50 is above 20 µM in data set [1], 0.0104 µM in data set [2], above 5.56 µM in data set [4] and 3.67 µM in data set [5]. Further, the remaining at 10 min in data set [6] turned out to be 28.2%; in data set [7] it was 3.88%. Further, the Papp at 4 h in data set [8] was 1.4 ×10⁻⁶ cm/s.

With `CN(C[C@H]1Cc2c(cccc2N2CCC(N)CC2)CN1)[C@H]1CCCc2cccnc21`, the IC50 is above 20 µM in data set [1], 0.0334 µM in data set [2], above 33.3 µM in data set [4] and 3.96 µM in data set [5]. Moreover, the remaining at 10 min in data set [3] is 80.8%; in data set [6] it was 70.3%; in data set [7] it was 38.4%.

Regarding `CN1C[C@@H]2CN(c3cccc4c3C[C@H](CN(C)[C@H]3CCCc5cccnc53)NC4)C[C@@H]2C1`, the IC50 was above 20 µM in data set [1], 0.00956 µM in data set [2], above 33.3 µM in data set [4] and above 20 µM in data set [5]. In addition, the remaining at 10 min was determined as 100% in data set [3], 32.9% in data set [6] and 35.3% in data set [7]. The Papp at 4 h in data set [8] was 0.5 ×10⁻⁶ cm/s.

Take `CN1CCC(N(C)c2cccc3c2C[C@H](CN(C)[C@H]2CCCc4cccnc42)NC3)CC1`: the IC50 in data set [1] was above 20 µM; in data set [2] it was 0.0134 µM; in data set [4] it was above 16.7 µM; in data set [5] it was above 20 µM. Besides, the values for the remaining at 10 min in data set [3] and in data set [7] were 88.8% and 6.52%, respectively. Also, the Papp at 4 h in data set [8] turned out to be 1 ×10⁻⁶ cm/s.

In the case of `CN(C[C@H]1Cc2c(cccc2NC2CCNCC2)CN1)[C@H]1CCCc2cccnc21`, the IC50 is above 20 µM in data set [1], 0.0181 µM in data set [2], above 16.7 µM in data set [4] and above 20 µM in data set [5]. The figures for the remaining at 10 min in data set [3], in data set [6] and in data set [7] were 75%, 10.9% and 9.79%, respectively.
